Assays:
[1] = system: crabgrass, large; assay: Test A preemergence; format: in vivo, Digitaria sanguinalis
Procedure, shortened: (§1)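 Visual injury rating, 0–100 (0 no effect, 100 complete control), vs untreated controls ~10 days after treatment in greenhouse. Pre: directed soil spray on seeded loam/sand. Post: 2–10 cm plants, 1–2 leaf stage. Formulation: non-phytotoxic solvent mix + surfactant.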

[2] = system: morningglory; assay: Test A preemergence; format: in vivo, Ipomoea spp.
Procedure, shortened: as §1

[3] = system: velvetleaf; assay: Test A preemergence; format: in vivo, Abutilon theophrasti
Procedure, shortened: as §1

[4] = system: corn; assay: Test A preemergence; format: in vivo, Zea mays
Procedure, shortened: as §1

[5] = system: barnyardgrass; assay: Test A postemergence; format: in vivo, Echinochloa crus-galli
Procedure, shortened: as §1

[6] = system: foxtail, giant; assay: Test A postemergence; format: in vivo, Setaria faberii
Procedure, shortened: as §1

[7] = system: rice; assay: Test B flood; format: in vivo, Oryza sativa; conditions: 250 g ai/ha, visual rating on 0 to 100 scale (0 no effect, 100 complete control), 13 to 15 days
Procedure, shortened: (§2)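 Visual ratings on a 0–100 scale, where 0 means no effect and 100 means complete control, were assigned by comparison with controls 13 to 15 days after treatment. Compounds went into paddy water over 2-leaf plants flooded to 3 cm.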

[8] = system: barnyardgrass; assay: Test B flood; format: in vivo, Echinochloa crus-galli; conditions: 250 g ai/ha, visual rating on 0 to 100 scale (0 no effect, 100 complete control), 13 to 15 days
Procedure, shortened: as §2

[9] = system: corn; assay: Test C preemergence; format: in vivo, Zea mays; conditions: for Plant response rating (scale of 0 to 100), Corn: 250 g ai/ha
Procedure, shortened: (§3)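 Greenhouse pot test: preemergence application onto freshly seeded loam/sand mix, postemergence application onto seedlings (1–4 leaves, 2–18 cm) in peat-vermiculite substrate. Responses scored visually 13 to 15 days later relative to controls, where 0 means no effect and 100 means complete control; a dash indicates no result.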

[10] = system: galium; assay: Test C postemergence; format: in vivo, Galium aparine; conditions: for Plant response rating (scale of 0 to 100 where 0 is no effect and 100 is complete control), Galium: 31 g ai/ha, visually evaluated after 13 to 15 days; for Galium plant response rating / Plant response rating, Galium: postemergence; for Galium plant response rating: 62 g ai/ha, scale 0 to 100
Procedure, shortened: as §3

[11] = system: crabgrass, large; assay: Test C postemergence; format: in vivo, Digitaria sanguinalis; conditions: for Plant response rating (scale of 0 to 100 where 0 is no effect and 100 is complete control), Crabgrass, Large: 31 g ai/ha, visually evaluated after 13 to 15 days; for Crabgrass, Large plant response rating / Plant response rating, Crabgrass, Large: postemergence; for Crabgrass, Large plant response rating: 62 g ai/ha, scale 0 to 100
Procedure, shortened: as §3

[12] = system: oilseed rape; assay: Test C postemergence; format: in vivo, Brassica napus; conditions: for Plant response rating (scale of 0 to 100 where 0 is no effect and 100 is complete control), Oilseed Rape: 31 g ai/ha, visually evaluated after 13 to 15 days; for Oilseed Rape plant response rating / Plant response rating, Oilseed Rape: postemergence; for Oilseed Rape plant response rating: 62 g ai/ha, scale 0 to 100
Procedure, shortened: as §3

[13] = system: kochia; assay: Test C postemergence; format: in vivo, Kochia scoparia; conditions: for Plant response rating (scale of 0 to 100 where 0 is no effect and 100 is complete control), Kochia: 31 g ai/ha, visually evaluated after 13 to 15 days; for Kochia plant response rating / Plant response rating, Kochia: postemergence; for Kochia plant response rating: 62 g ai/ha, scale 0 to 100
Procedure, shortened: as §3

[14] = system: oilseed rape; assay: Test C preemergence; format: in vivo, Brassica napus; conditions: for Plant response rating (scale of 0 to 100), Oilseed Rape: Preemergence, 250 g ai/ha
Procedure, shortened: as §3

[15] = Preemergence, 500 g ai/ha, 0 to 100 scale, 0 no effect, 100 complete control
[16] = preemergence, 125 g ai/ha, visual injury, 0 to 100 scale, approx. 10 days
[17] = Postemergence, 125 g ai/ha, 0 to 100 scale, 0 no effect, 100 complete control
[18] = Postemergence, 500 g ai/ha, visual rating after approx. 10 days, 0 to 100 scale (0 no effect, 100 complete control)
[19] = postemergence, 125 g ai/ha, about 10 days, visual rating on 0 to 100 scale (0 no effect, 100 complete control)
[20] = preemergence, 31 g ai/ha, scale 0 to 100 (0 no effect, 100 complete control), 13 to 15 days
[21] = preemergence, 62 g ai/ha, 13 to 15 days, scale 0 to 100, 0 = no effect, 100 = complete control
[22] = preemergence, 125 g ai/ha, scale 0 to 100, 0 is no effect, 100 is complete control
[23] = 250 g ai/ha, scale 0 to 100 (0 no effect, 100 complete control)
[24] = 125 g ai/ha, scale 0 to 100, 0 no effect, 100 complete control
[25] = preemergence, 500 g ai/ha, visual injury after approx. 10 days, 0 to 100 scale (0 no effect, 100 complete control)
[26] = preemergence, 31 g ai/ha, visual rating, scale 0 to 100 (0 no effect, 100 complete control), 13 to 15 days
[27] = preemergence, 62 g ai/ha, scale 0 to 100 (0 no effect, 100 complete control), 13 to 15 days
[28] = Postemergence, 500 g ai/ha, 0 to 100 scale (0 no effect, 100 complete control)
[29] = preemergence, 125 g ai/ha, 13 to 15 days, scale 0 to 100, 0 = no effect, 100 = complete control

Compound	Foxtail, Giant plant response rating [6, 19]	Plant response rating, Rice [7]	Plant response rating, Barnyardgrass [8]	Plant response rating (scale of 0 to 100), Corn ([9]; Preemergence)	Corn plant response rating [9, 22]	Plant response rating (scale of 0 to 100 where 0 is no effect and 100 is complete control), Galium ([10]; Postemergence)	Galium plant response rating [10]	Plant response rating, Galium [10, 24]	Plant response rating (scale of 0 to 100 where 0 is no effect and 100 is complete control), Crabgrass, Large ([11]; Postemergence)	Crabgrass, Large plant response rating [11]	Plant response rating, Crabgrass, Large [11, 23]	Plant response rating, Crabgrass, Large [11, 24]	Plant response rating (scale of 0 to 100 where 0 is no effect and 100 is complete control), Oilseed Rape ([12]; Postemergence)	Oilseed Rape plant response rating [12]	Plant response rating, Oilseed Rape [12, 23]	Plant response rating, Oilseed Rape [12, 24]	Plant response rating (scale of 0 to 100 where 0 is no effect and 100 is complete control), Kochia ([13]; Postemergence)	Kochia plant response rating [13]	Plant response rating, Kochia [13, 23]	Plant response rating, Kochia [13, 24]	other results
CCc1cc(C(=O)NC2CC2)nn1Cc1ccnc(C(F)(F)F)c1 [Compound 76]	80	20	20	100	100	70	75	90	5	10	70	70	30	35	60	55	75	90	90	90	Crabgrass, Large plant response rating [1, 15]: 100; Crabgrass, Large plant response rating [1, 16]: 90; Morningglory plant response rating [2, 15]: 100; Morningglory plant response rating [2, 16]: 70; Velvetleaf plant response rating [3, 15]: 60; Velvetleaf plant response rating [3, 16]: 20; Corn plant response rating [4, 15]: 80; Corn plant response rating [4, 16]: 50; Barnyardgrass plant response rating [5, 17]: 80; Barnyardgrass plant response rating [5, 18]: 90; Foxtail, Giant plant response rating [6, 18]: 100; Corn plant response rating [9, 20]: 40; Plant response rating, Corn [9, 21]: 80; Plant response rating, Galium [10, 23]: 90
CCONC(=O)c1cc(CC)n(Cc2ccnc(C(F)(F)F)c2)n1 [Compound 77]	90	20	0	–	55	5	15	20	10	10	–	20	5	5	–	15	40	45	–	70	Crabgrass, Large plant response rating [1, 15]: 100; Crabgrass, Large plant response rating [1, 16]: 100; Morningglory plant response rating [2, 15]: 50; Morningglory plant response rating [2, 16]: 20; Velvetleaf plant response rating [3, 15]: 80; Velvetleaf plant response rating [3, 16]: 20; Corn plant response rating [4, 15]: 30; Corn plant response rating [4, 16]: 10; Barnyardgrass plant response rating [5, 17]: 50; Barnyardgrass plant response rating [5, 18]: 100; Foxtail, Giant plant response rating [6, 18]: 100; Plant response rating, Corn ([9]; Preemergence, 16 g ai/ha, scale 0 to 100): 0; Corn plant response rating [9, 20]: 0; Plant response rating, Corn [9, 21]: 15; Plant response rating (scale of 0 to 100), Galium ([10]; Postemergence, 16 g ai/ha): 5; Plant response rating (scale of 0 to 100), Crabgrass, Large ([11]; Postemergence, 16 g ai/ha): 5; Plant response rating (scale of 0 to 100), Oilseed Rape ([12]; Postemergence, 16 g ai/ha): 5; Plant response rating (scale of 0 to 100), Kochia ([13]; Postemergence, 16 g ai/ha): 40
CCc1cc(-c2ccc(C(F)(F)F)cc2)nn1Cc1ccnc(C(F)(F)F)c1 [Compound 110]	90	35	30	10	5	60	60	90	35	40	60	–	60	85	90	90	90	90	90	90	Crabgrass, Large plant response rating [1, 16]: 100; Crabgrass, Large plant response rating [1, 25]: 100; Morningglory plant response rating [2, 16]: 90; Morningglory plant response rating [2, 25]: 100; Velvetleaf plant response rating [3, 16]: 90; Velvetleaf plant response rating [3, 25]: 100; Corn plant response rating [4, 16]: 80; Corn plant response rating [4, 25]: 90; Barnyardgrass plant response rating [5, 18]: 90; Barnyardgrass plant response rating [5, 19]: 80; Foxtail, Giant plant response rating [6, 18]: 100; Corn plant response rating [9, 26]: 5; Corn plant response rating [9, 27]: 5
CCc1cc(C(=O)NOC(C)C)nn1Cc1ccnc(OC(F)F)c1 [Compound 126]	90	20	40	98	90	50	50	55	5	10	60	15	45	50	70	60	55	50	65	65	Barnyardgrass plant response rating [5, 28]: 100; Barnyardgrass plant response rating [5, 19]: 90; Foxtail, Giant plant response rating [6, 28]: 90; Corn plant response rating [9, 26]: 25; Corn plant response rating [9, 27]: 65; Plant response rating (scale of 0 to 100), Oilseed Rape [14]: 100; Oilseed Rape plant response rating [14, 26]: 85; Oilseed Rape plant response rating [14, 27]: 100; Oilseed Rape plant response rating [14, 22]: 100; Plant response rating, Galium [10, 23]: 70
CCCc1cc(C(=O)NCC(F)(F)F)nn1Cc1ccnc(OC(F)F)c1 [Compound 127]	90	20	70	45	–	70	70	70	10	10	55	20	65	70	85	80	60	65	90	65	Barnyardgrass plant response rating [5, 28]: 90; Barnyardgrass plant response rating [5, 19]: 90; Foxtail, Giant plant response rating [6, 28]: 90; Corn plant response rating [9, 26]: 5; Corn plant response rating [9, 27]: 25; Plant response rating, Corn [9, 29]: 65; Plant response rating (scale of 0 to 100), Oilseed Rape [14]: 100; Oilseed Rape plant response rating [14, 26]: 85; Oilseed Rape plant response rating [14, 27]: 100; Plant response rating, Oilseed Rape [14, 29]: 100; Plant response rating, Galium [10, 23]: 80

Source: patent US20150105252A1, “SUBSTITUTED PYRAZOLES AS HERBICIDES” (E I DU PONT DE NEMOURS AND COMPANY, priority 2013, published 2015)
